The supplement of paper PMC10307832

Key:
Experiment in all cases: relative viability (nuclei count vs DMSO), 5 days (fraction); higher = more cells survive
EMC-BAC-2 = system: EMC-BAC-2
Procedure, shortened: (§1)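 After 5 days of treatment, lung cancer cells in 1536-well plates were fixed and stained in a single step (final 0.05% Triton X-100, 1% formaldehyde, 1 ug/ml Hoechst) and their nuclei counted on 4× images. Treatment had been applied by pin tool the day after seeding as one drug alone or as a fixed anchor-drug dose with five library-drug doses (not always all listed) in √10 steps. Relative viability is the nuclei count of treated wells divided by that of vehicle wells, and values are medians of duplicate plates.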

EPLC-272H = system: EPLC-272H
Procedure, shortened: as §1

H3255 = system: H3255
Procedure, shortened: as §1

HOP-62 = system: HOP-62
Procedure, shortened: as §1

LCLC-97TM1 = system: LCLC-97TM1
Procedure, shortened: as §1

LXF-289 = system: LXF-289
Procedure, shortened: as §1

NCI-H1563 = system: NCI-H1563
Procedure, shortened: as §1

NCI-H1734 = system: NCI-H1734
Procedure, shortened: as §1

NCI-H1915 = system: NCI-H1915
Procedure, shortened: as §1

NCI-H1993 = system: NCI-H1993
Procedure, shortened: as §1

NCI-H2009 = system: NCI-H2009
Procedure, shortened: as §1

NCI-H2023 = system: NCI-H2023
Procedure, shortened: as §1

NCI-H2085 = system: NCI-H2085
Procedure, shortened: as §1

NCI-H2126 = system: NCI-H2126
Procedure, shortened: as §1

NCI-H2347 = system: NCI-H2347
Procedure, shortened: as §1

NCI-H322M = system: NCI-H322M
Procedure, shortened: as §1

NCI-H647 = system: NCI-H647
Procedure, shortened: as §1

NCI-H661 = system: NCI-H661
Procedure, shortened: as §1

NCI-H727 = system: NCI-H727
Procedure, shortened: as §1

PC-14 = system: PC-14
Procedure, shortened: as §1

SK-LU-1 = system: SK-LU-1
Procedure, shortened: as §1

SW 1573 = system: SW 1573
Procedure, shortened: as §1

O=c1cc(N2CCOCC2)oc2c(-c3cccc4c3sc3ccccc34)cccc12 + CS(=O)(=O)CCNCc1ccc(-c2ccc3ncnc(Nc4ccc(OCc5cccc(F)c5)c(Cl)c4)c3c2)o1 [Lapatinib] (partner 2 µM)
relative viability (EMC-BAC-2; first compound 0.01 µM): 0.732
relative viability (EMC-BAC-2; first compound 0.03162 µM): 0.946
relative viability (EMC-BAC-2; first compound 0.1 µM): 0.97
relative viability (EMC-BAC-2; first compound 0.3162 µM): 0.893
relative viability (EMC-BAC-2; first compound 1 µM): 0.848
relative viability (EPLC-272H; first compound 0.01 µM): 1.15
relative viability (EPLC-272H; first compound 0.03162 µM): 1.12
relative viability (EPLC-272H; first compound 0.3162 µM): 0.928
relative viability (EPLC-272H; first compound 1 µM): 0.825
relative viability (H3255; first compound 0.01 µM): 0.222
relative viability (H3255; first compound 0.03162 µM): 0.286
relative viability (H3255; first compound 0.1 µM): 0.258
relative viability (H3255; first compound 0.3162 µM): 0.225
relative viability (H3255; first compound 1 µM): 0.248
relative viability (HOP-62; first compound 0.01 µM): 0.996
relative viability (HOP-62; first compound 0.03162 µM): 0.856
relative viability (HOP-62; first compound 0.1 µM): 0.821
relative viability (HOP-62; first compound 0.3162 µM): 0.958
relative viability (HOP-62; first compound 1 µM): 1.17
relative viability (LCLC-97TM1; first compound 0.01 µM): 1.09
relative viability (LCLC-97TM1; first compound 0.03162 µM): 1.57
relative viability (LCLC-97TM1; first compound 0.3162 µM): 1.13
relative viability (LCLC-97TM1; first compound 1 µM): 0.727
relative viability (LXF-289; first compound 0.01 µM): 0.872
relative viability (LXF-289; first compound 0.03162 µM): 0.881
relative viability (LXF-289; first compound 0.1 µM): 0.89
relative viability (LXF-289; first compound 0.3162 µM): 0.897
relative viability (LXF-289; first compound 1 µM): 0.946
relative viability (NCI-H1563; first compound 0.01 µM): 1.27
relative viability (NCI-H1563; first compound 0.03162 µM): 0.995
relative viability (NCI-H1563; first compound 0.1 µM): 1.04
relative viability (NCI-H1563; first compound 0.3162 µM): 0.762
relative viability (NCI-H1563; first compound 1 µM): 0.782
relative viability (NCI-H1734; first compound 0.01 µM): 1.12
relative viability (NCI-H1734; first compound 0.03162 µM): 1.03
relative viability (NCI-H1734; first compound 0.1 µM): 1.12
relative viability (NCI-H1734; first compound 0.3162 µM): 1.04
relative viability (NCI-H1734; first compound 1 µM): 0.927
relative viability (NCI-H1915; first compound 0.01 µM): 1.05
relative viability (NCI-H1915; first compound 0.03162 µM): 1.05
relative viability (NCI-H1915; first compound 0.1 µM): 0.957
relative viability (NCI-H1915; first compound 0.3162 µM): 0.977
relative viability (NCI-H1915; first compound 1 µM): 1.05
relative viability (NCI-H1993; first compound 0.01 µM): 0.823
relative viability (NCI-H1993; first compound 0.03162 µM): 0.911
relative viability (NCI-H1993; first compound 0.1 µM): 0.813
relative viability (NCI-H1993; first compound 0.3162 µM): 0.764
relative viability (NCI-H1993; first compound 1 µM): 0.829
relative viability (NCI-H2009; first compound 0.01 µM): 0.906
relative viability (NCI-H2009; first compound 0.03162 µM): 0.915
relative viability (NCI-H2009; first compound 0.1 µM): 0.895
relative viability (NCI-H2009; first compound 0.3162 µM): 0.94
relative viability (NCI-H2009; first compound 1 µM): 1.15
relative viability (NCI-H2023; first compound 0.01 µM): 0.88
relative viability (NCI-H2023; first compound 0.03162 µM): 0.975
relative viability (NCI-H2023; first compound 0.1 µM): 0.882
relative viability (NCI-H2023; first compound 0.3162 µM): 0.826
relative viability (NCI-H2023; first compound 1 µM): 0.887
relative viability (NCI-H2085; first compound 0.01 µM): 0.796
relative viability (NCI-H2085; first compound 0.03162 µM): 0.757
relative viability (NCI-H2085; first compound 0.1 µM): 0.775
relative viability (NCI-H2085; first compound 0.3162 µM): 0.734
relative viability (NCI-H2085; first compound 1 µM): 0.751
relative viability (NCI-H2126; first compound 0.01 µM): 0.826
relative viability (NCI-H2126; first compound 0.03162 µM): 0.768
relative viability (NCI-H2126; first compound 0.1 µM): 0.758
relative viability (NCI-H2126; first compound 0.3162 µM): 0.748
relative viability (NCI-H2126; first compound 1 µM): 0.718
relative viability (NCI-H2347; first compound 0.01 µM): 0.953
relative viability (NCI-H2347; first compound 0.03162 µM): 0.965
relative viability (NCI-H2347; first compound 0.1 µM): 0.93
relative viability (NCI-H2347; first compound 0.3162 µM): 0.942
relative viability (NCI-H2347; first compound 1 µM): 0.973
relative viability (NCI-H322M; first compound 0.01 µM): 0.584
relative viability (NCI-H322M; first compound 0.03162 µM): 0.6
relative viability (NCI-H322M; first compound 0.3162 µM): 0.577
relative viability (NCI-H322M; first compound 1 µM): 0.455
relative viability (NCI-H647; first compound 0.01 µM): 0.95
relative viability (NCI-H647; first compound 0.03162 µM): 1.22
relative viability (NCI-H647; first compound 0.1 µM): 1.04
relative viability (NCI-H647; first compound 0.3162 µM): 1.22
relative viability (NCI-H647; first compound 1 µM): 1
relative viability (NCI-H661; first compound 0.01 µM): 0.487
relative viability (NCI-H661; first compound 0.03162 µM): 0.531
relative viability (NCI-H661; first compound 0.1 µM): 0.603
relative viability (NCI-H661; first compound 0.3162 µM): 0.473
relative viability (NCI-H661; first compound 1 µM): 0.522
relative viability (NCI-H727; first compound 0.01 µM): 0.835
relative viability (NCI-H727; first compound 0.03162 µM): 0.973
relative viability (NCI-H727; first compound 0.1 µM): 0.925
relative viability (NCI-H727; first compound 0.3162 µM): 0.717
relative viability (NCI-H727; first compound 1 µM): 0.954
relative viability (PC-14; first compound 0.01 µM): 0.331
relative viability (PC-14; first compound 0.03162 µM): 0.32
relative viability (PC-14; first compound 0.1 µM): 0.272
relative viability (PC-14; first compound 0.3162 µM): 0.308
relative viability (PC-14; first compound 1 µM): 0.302
relative viability (SK-LU-1; first compound 0.01 µM): 0.808
relative viability (SK-LU-1; first compound 0.03162 µM): 0.815
relative viability (SK-LU-1; first compound 0.1 µM): 0.671
relative viability (SK-LU-1; first compound 0.3162 µM): 0.82
relative viability (SK-LU-1; first compound 1 µM): 0.816
relative viability (SW 1573; first compound 0.01 µM): 0.21
relative viability (SW 1573; first compound 0.03162 µM): 1.22
relative viability (SW 1573; first compound 0.1 µM): 1.06
relative viability (SW 1573; first compound 0.3162 µM): 1.07
relative viability (SW 1573; first compound 1 µM): 1.14
